Measurements: US12161653B2, “Treatment of submental fat” (Allergan Sales, LLC, priority 2011, dated 2024)

Tests used:
caudal lateral fat pads = assay: Fat pad necrosis in Zucker rats after a single injection; assay type: in vivo; settings: for effectiveness: Zucker rats and clinical studies
Procedure: In the rats study, 8 rats received a single injection into the caudal lateral fat pads of 2.5 mL deoxycholic acid at 1%, 0.5%, 0.25%, or 0.1% concentrations, or 2.5 mL vehicle (0.9% benzyl alcohol in water).

[1] = test system: subcutaneous abdominal tissue; assay: Clinical trial: histological changes, efficacy and safety by concentration; assay type: in vivo, human
Procedure: These findings are consistent with the increased intensity of adverse effects at the higher concentrations and larger volumes administered (0.4 mL/injection) in clinical trials. […] Concentrations at or below 0.25% were not tested, as they are at or below the concentration necessary to form micelles. The formation of micelles is essential for lipolytic activity.
(§1) A total of 274 subjects participated in 6 Phase ½ clinical studies that were conducted with SDI. Of these, 3 studies (n=179) evaluated SDI for the treatment of submental fat (SMF). Two studies evaluated SDI for the treatment of superficial lipoma. One study (SDI-08-10) evaluated the histological effects of SDI in subcutaneous abdominal tissue in subjects scheduled to undergo abdominoplasty.

[2] = test system: submental fat (SMF) deposits; assay: Example 2 placebo-controlled clinical study, SMF rating scale; assay type: in vivo, human; settings: for change from baseline at week 16 compared to placebo in SMF rating scale score: significance (ANCOVA): every 4 weeks, up to 4 treatments
Procedure: A clinical study was conducted to evaluate the effectiveness of various doses of sodium deoxycholate in removing undesired submental fat (SMF) deposits. A multicenter, randomized, double-blind, placebo-controlled, parallel-group comparison of 3 concentrations of sodium deoxycholate (0.5, 1.0, and 2.0 percent w/v) in sterile water with 0.9% benzyl alcohol and placebo was conducted to determine the efficacy of reduction in SMF deposits. Placebo injection consisted of sterile water with 0.9% benzyl alcohol.
All subjects were to have up to 4 treatment sessions at intervals of no less than 4 weeks (±3 days) between treatments.
Eligible subjects were concurrently randomized into one of the following groups: • Placebo injected every 4 weeks for up to 4 treatments • 0.5% w/v sodium deoxycholate injected every 4 weeks for up to 4 treatments • 1.0% w/v sodium deoxycholate injected every 4 weeks for up to 4 treatments • 2.0% w/v sodium deoxycholate injected every 4 weeks for up to 4 treatments
85 subjects were randomized: 21 subjects to the 0.5% w/v sodium deoxycholate group, 20 subjects to the 1.0% w/v sodium deoxycholate group; 22 subjects to the 2.0% w/v sodium deoxycholate (DCA) group; and 22 subjects to the placebo group. 73 subjects completed the study.
Subject selection included males or non-pregnant, non-lactating females aged 25 to 65 years, inclusive, on the date of randomization, with SMF that was considered undesirable by the subject and graded by the investigator as 2 or 3 using the SMF rating scale, and a history of maintenance of a stable body weight, in the judgment of the investigator, for at least 6 months before randomization.

[3] = Pharmacokinetics of SDI in clinical studies (plasma deoxycholate); assay type: in vivo; settings: human
Procedure: (§2) The most commonly observed adverse events associated with the treatment area include pain, erythema, induration, swelling, bruising, and numbness. Less frequently, pruritus and paresthesia have been reported. […] The pharmacokinetics of SDI is linear, illustrating the predictable overall exposure. Plasma concentrations were transient with peak concentrations observed at approximately 15 to 30 minutes, returning to endogenous deoxycholate levels within 24 hours after dosing.

[4] = Phase 1/2 clinical studies with SDI: safety; assay type: in vivo, human
Procedure: as §1, §2

[5] = In vitro micelle formation; assay type: physicochemical
Description: When secreted into the small intestine, bile acids form micelles with dietary fats to aid in lipolysis and lipid absorption.

submental fat (SMF) = assay: Example 3 phase II placebo-controlled study (CR-SMFRS, PR-SMFRS, PR-SMFIS, MRI, other scales); assay type: in vivo, human; settings: for number of patients having at least 1-point improvement (CR-SMFRS) vs placebo group: week 16, 24 and 32
Procedure: A clinical study was conducted to evaluate the effectiveness of various doses of sodium deoxycholate in removing undesired submental fat (SMF) deposits. This clinical study was multicenter, randomized, double-blind, placebo-controlled study of sodium deoxycholate injection (“SDI” or alternatively “ATX-101”) versus placebo for the reduction of localized subcutaneous fat in the submental area (SMF) using magnetic resonance imaging (MRI) and a battery of clinician- and subject-reported measurements.
Study Design: FIG. 2 depicts the study Design and Treatment Schema associated with this procedure. This was a multicenter, randomized, double-blind, placebo-controlled study in which approximately 120 subjects received either up to 50 mg SDI, up to 100 mg SDI, or placebo in a 1:1:1 ratio (5 mg/mL:10 mg/mL:placebo) as indicated below, to evaluate the safety and efficacy of fixed concentrations of SDI given in up to 50 0.2-mL injections in up to 6 treatment sessions. No subject received more than 10 mL in any treatment session, nor did any subject undergo more than 6 treatment sessions. The initial 30 subjects were enrolled in a 2:2:1 ratio (i.e., 12, 12 and 6 subjects per group, for the two SDI groups and placebo, respectively) and the remaining subjects were randomized to balance the enrollment (approximately 28, 28, and […] per group for the two SDI groups and placebo, respectively).
To measure changes in SMF volume and thickness, MRI acquisitions were repeated prior to each treatment session and post-treatment (4 and 12 weeks after the last treatment cycle). Before subjects completed each MRI visit, the MRI images were evaluated for acceptability.
Subjects who successfully completed screening and baseline evaluations received up to 50 injections (0.2 mL each for a maximum volume of 10 mL) per treatment session, depending upon size and configuration of the SMF. Treatment was given at 4-week (±5 days) intervals. Study material injection sites were positioned using a 1.0 cm grid, which is designed to achieve an appropriate distribution of injections across the submental area.
Study Material, Dose, and Route of Administration: SDI (sodium deoxycholate injection) was provided in a concentration of 5 mg/mL (0.5%) and 10 mg/mL (1.0%) in 10 mM sodium phosphate, 0.9% (weight per volume [w/v]) sodium chloride, and 0.9% (w/v) benzyl alcohol in water for injection (WFI). Each vial (for single use only) contained at least 2.0 mL of accessible material, accessed by means of sterile syringe and needle through a rubber stopper closure.
Evaluation of Efficacy: The effects of 5 mg/mL SDI and 10 mg/mL SDI transcutaneous injections in the submental area were evaluated relative to placebo by measuring the following: (1) the reduction of fat using Clinician-Reported Submental Fat Rating Scale (CR-SMFRS), Patient-Reported Submental Fat Rating Scale (PR-SMFRS), and Patient-Reported Submental Fat Impact Scale (PR-SMFIS); (2) the volume of SMF using MRI; and (3) the thickness of SMF using MM. The efficacy evaluation criteria included: Clinician-Reported Submental Fat Rating Scale (CR-SMFRS), Patient-Reported Submental Fat Rating Scale (PR-SMFRS), Patient-Reported Submental Fat Impact Scale (PR-SMFIS) scores, and Magnetic resonance imaging (MM).
Other Evaluations: The effects of 5 mg/mL SDI and 10 mg/mL SDI transcutaneous injections in the submental area, relative to placebo, for changes in skin laxity (SLRS), Subject Self Rating Scale (SSRS), and subject-reported outcome measures (Self-Ratings of Attractiveness, Derriford Appearance Scale [DAS], Body Image Quality of Life Inventory [BIQLI]), other Subject-Reported Questions, and Post-treatment Questions) were evaluated. Measurements of the thickness of fat in the submental area were made using calipers. Photographs were taken to document treatment effects. […]

submental fat = assay: Earlier clinical studies of SDI for submental fat (SMFRS, SSRS); assay type: in vivo, human
Procedure: as §1
The SMF scale used to assess efficacy in clinical studies with SDI has been validated and shown to be reliable. […] The expected improvement from treatment with SDI is consistent with what patients who desire aesthetic changes would find satisfactory.

Compound: C[C@H](CCC(=O)O)[C@H]1CC[C@H]2[C@@H]3CC[C@@H]4C[C@H](O)CC[C@]4(C)[C@H]3C[C@H](O)[C@]12C [deoxycholic acid]
- fat pad necrosis relative to 0.5% (caudal lateral fat pads; 1.0% vs 0.5%, single 2.5 mL injection): approximately 2.5 times
- histological changes ([1]; 2.0%): marked necrosis, resulting in lipid lake formation and vessel damage
- histological changes ([1]; 4.0%): marked necrosis, resulting in lipid lake formation and vessel damage

Compound: C[C@H](CCC(=O)[O-])[C@H]1CC[C@H]2[C@@H]3CC[C@@H]4C[C@H](O)CC[C@]4(C)[C@H]3C[C@H](O)[C@]12C.[Na+] [sodium deoxycholate]
- time points with statistically significant change from baseline in SMF rating scale score compared to placebo ([2]; 0.5% w/v): weeks 8, 12, 16 and 24
- change from baseline at week 16 compared to placebo in SMF rating scale score: significance (ANCOVA) ([2]; 0.5% w/v): statistically significant
- time points with statistically significant improvement in SMF rating scale score compared to placebo ([2]; 1.0% w/v): weeks 12, 16 and 24
- change from baseline at week 16 compared to placebo in SMF rating scale score: significance (ANCOVA) ([2]; 1% w/v): statistically significant
- relative effectiveness by visual assessment methods ([2]; 2.0% vs 1.0% or 0.5%): less effective than ATX-101 1.0% or 0.5%
- time points with statistically significant improvement in SMF rating scale score compared to placebo ([2]; 2% w/v): only at week 24
- change from baseline at week 16 compared to placebo in SMF rating scale score: significance (ANCOVA) ([2]; 2% w/v): not
- effectiveness (caudal lateral fat pads; 0.5% w/v): effective
- effectiveness (caudal lateral fat pads; 1.0% w/v): effective
- effect compared with vehicle (caudal lateral fat pads; doses at and below 0.25%): no different than vehicle
- pharmacokinetics (linearity) [3]: linear
- time of peak plasma concentrations [3]: 15 to 30 min
- time to return to endogenous deoxycholate levels after dosing [3]: ≤ 24 h
- safety profile across studies ([4]; 0.5% vs 2.0% and 4.0%): better safety profile than the higher concentrations
- safety profile across studies ([4]; 1.0% vs 2.0% and 4.0%): better safety profile than the higher concentrations
- safety and tolerability ([4]; all concentrations in clinical studies): safe and well tolerated
- adverse events ([4]; clinical studies, not systemic): local, transient injection site reactions of mild to moderate intensity
- minimal concentration at which micelle formation was observed [5]: 0.25 % w/v
- CR-SMFRS change from baseline (FIG. 4) (submental fat (SMF); 0.5%): marked reduction of submental fat as compared with placebo
- SMF thickness and volume by MRI (submental fat (SMF); 0.5%): statistically significant reduction
- SSRS, patient impact scores, patient impact questionnaire, improvement in appearance of the chin and satisfaction (submental fat (SMF); 0.5%): statistically significant changes
- number of patients having at least 1-point improvement (CR-SMFRS) vs placebo group (submental fat (SMF); 0.5%): greater
- CR-SMFRS change from baseline (FIG. 4) (submental fat (SMF); 1.0%): marked reduction of submental fat as compared with placebo
- SMF thickness and volume by MRI (submental fat (SMF); 1.0%): statistically significant reduction
- SSRS, patient impact scores, patient impact questionnaire, improvement in appearance of the chin and satisfaction (submental fat (SMF); 1.0%): statistically significant changes
- statistical significance of CR-SMFRS reduction vs placebo (submental fat (SMF); 1.0%): statistically significant at most time points
- dose response by CR-SMFRS (submental fat (SMF); 1.0% and 0.5%): good dose response
- dose response by PR-SMFRS (submental fat (SMF); 1.0% and 0.5%): good dose response
- SMF thickness and volume by MRI, compared with 0.5% (submental fat (SMF); 1.0% vs 0.5%): better dose response and greater reduction
- relative effectiveness by CR-SMFRS (submental fat (SMF); 1.0% vs 0.5%): more effective than 0.5%
- relative effectiveness by PR-SMFRS (submental fat (SMF); 1.0% vs 0.5%): more effective than 0.5%
- number of patients having at least 1-point improvement (CR-SMFRS) vs placebo group (submental fat (SMF); 1.0%): greater
- 1-grade reduction, CR-SMFRS (submental fat (SMF); 1.0%, week 16 and week 32): Statistically significance was obtained
- 1-grade reduction, PR-SMFRS (submental fat (SMF); 1.0%, week 16 and week 32): Statistically significance was obtained
- 2-grade reduction, PR-SMFRS (submental fat (SMF); 1.0%, week 32): Statistically significance was obtained
- CR-SMFRS with BMI as a standard (FIG. 18) (submental fat (SMF); ATX-101 treatments): significant submental fat reduction
- CR-SMFRS/body weight ratio (submental fat (SMF); FIGS. 20 and 21): decreased significantly
- SSRS scores (submental fat; 0.5% [0.2 mL/1.0 cm]): significantly better than placebo
- change in SMFRS score at Week 16 (submental fat; 0.5% [0.2 mL/1.0 cm]): significantly better than placebo
- SSRS scores (submental fat; 1.0% [0.2 mL/1.0 cm]): significantly better than placebo
- change in SMFRS score at Week 16 (submental fat; 1.0% [0.2 mL/1.0 cm]): significantly better than placebo
